Data on 32 molecules can be found in US7482360B2, “Fused tetracyclic mGluR1 antagonists as therapeutic agents” (Schering Corporation, priority 2005, dated 2009).

A word on the IC50: it is the concentration needed to halve the response being measured.

The assay has as its target T1, hmGluR1 receptor (Homo sapiens, UniProt Q13255).
T1 construct: expressed in transfected cells; host or cells: CHO
Put plainly: IC50 Determination: intracellular calcium mobilization (FLIPR) in a CHO cell line stably expressing hmGluR1 receptor, against Quisqualate. Type of assay: cell-based. The conditions noted are these: CHO cells expressing hmGluR1, against Quisqualate 1 μM (EC80), compounds added 10 minutes before agonist. The procedure:
A CHO cell line stably expressing hmGluR1 receptor was established. One day prior to assay, cells were split in growth media at concentration of 50,000 cells/well in a volume of 100 μl and seeded into black clear-bottom 96-well plates. After two to six hours, when cells were well attached to the plate, growth medium was replaced with assay medium (100 μL) consisting of DMEM high glucose, supplemented with GPT (1 U/mL) and sodium pyruvate, 1 mM. Following overnight incubation, medium was discarded and cells were loaded for 2 hours with dye from the Calcium 3 Assay Reagent Kit (Molecular Devices, # R8033), prepared according to manufacturers' instructions. A 96-tip pipettor/fluorometric imaging plate reader (FLIPR 384; Molecular Devices) was used and intracellular calcium mobilization was measured by increases in fluorescence upon agonist Quisqualate stimulation following 6 sec-baseline measurement. Test compounds were added 10 minutes before Quisqualate. IC50 determinations for tested compounds were generated against Quisqualate 1 μM corresponding to EC80 value in a standard dose response curve.
Background: A change in cytosolic calcium serves as a functional read-out for many receptors and channels.

Read-outs that look alike come from different tables or passages of the source. Bounds are passed on as bounds.

T1 sequence (Q13255 19-1194): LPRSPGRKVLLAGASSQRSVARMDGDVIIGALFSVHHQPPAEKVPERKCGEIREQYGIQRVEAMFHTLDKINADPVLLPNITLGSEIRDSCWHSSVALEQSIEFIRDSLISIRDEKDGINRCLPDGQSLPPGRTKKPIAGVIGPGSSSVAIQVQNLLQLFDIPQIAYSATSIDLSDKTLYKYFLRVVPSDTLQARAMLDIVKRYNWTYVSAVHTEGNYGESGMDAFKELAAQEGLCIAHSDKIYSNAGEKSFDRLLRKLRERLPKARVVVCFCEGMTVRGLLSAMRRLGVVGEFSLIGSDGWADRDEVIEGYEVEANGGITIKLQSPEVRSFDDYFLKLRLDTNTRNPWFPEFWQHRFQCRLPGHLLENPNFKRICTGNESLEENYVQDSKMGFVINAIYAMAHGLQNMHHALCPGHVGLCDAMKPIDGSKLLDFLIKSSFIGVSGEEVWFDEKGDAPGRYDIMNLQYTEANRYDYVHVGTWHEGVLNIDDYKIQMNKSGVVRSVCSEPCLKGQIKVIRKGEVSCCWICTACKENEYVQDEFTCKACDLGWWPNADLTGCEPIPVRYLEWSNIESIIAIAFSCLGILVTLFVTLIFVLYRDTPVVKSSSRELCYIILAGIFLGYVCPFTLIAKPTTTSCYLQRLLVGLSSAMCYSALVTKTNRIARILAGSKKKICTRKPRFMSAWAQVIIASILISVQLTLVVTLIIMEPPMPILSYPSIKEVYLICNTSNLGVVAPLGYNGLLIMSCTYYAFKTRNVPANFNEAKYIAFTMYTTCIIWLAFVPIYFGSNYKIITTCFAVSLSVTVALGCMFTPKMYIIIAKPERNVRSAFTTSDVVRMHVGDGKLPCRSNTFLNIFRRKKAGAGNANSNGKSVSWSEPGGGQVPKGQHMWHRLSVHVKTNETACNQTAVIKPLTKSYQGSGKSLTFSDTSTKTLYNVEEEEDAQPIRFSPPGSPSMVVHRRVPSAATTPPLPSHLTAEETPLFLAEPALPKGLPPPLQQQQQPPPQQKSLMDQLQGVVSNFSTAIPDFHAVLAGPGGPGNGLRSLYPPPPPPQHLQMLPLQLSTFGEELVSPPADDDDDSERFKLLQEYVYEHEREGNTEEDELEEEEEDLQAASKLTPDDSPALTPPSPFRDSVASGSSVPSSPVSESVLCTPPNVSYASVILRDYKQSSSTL

Regarding `Cc1ccc(-n2cnc3c(sc4ncc(Br)c(N(C)CCO)c43)c2=O)cc1` [Compound 37f], the half-maximal inhibitory concentration (IC50) (read-out: mGluR1 IC50 rating) lay in the range of 100 to 1000 nM.

In the case of `C[C@H]1COc2cnc3sc4c(=O)n(-c5ccc(Cl)cc5)cnc4c3c2N1` [Compound 38e], the half-inhibitory concentration (IC50) by setting is: (read-out: mGluR1 IC50) 12 nM; (read-out: mGluR1 IC50 rating) below 20 nM. For `Cc1ccc(-n2cnc3c(sc4ncc5c(c43)N(C)CCO5)c2=O)cc1` [Compound 38f] the same measures were 5.7 nM and below 20 nM. The like results for `Cc1ccc(-n2cnc3c(sc4ncc5c(c43)NC[C@@H](C)O5)c2=O)cc1` [Compound 38g] were, in that order, 5.3 nM and below 20 nM. With `O=c1c2sc3ncc4c(c3c2ncn1-c1ccc(Cl)cc1)NCCO4` [Compound 38a], the IC50 is 2.9 nM (read-out: mGluR1 IC50) and below 20 nM (read-out: mGluR1 IC50 rating). As to `CSc1nc2c(cnc3sc4c(=O)n(-c5ccc(C)cc5)cnc4c32)s1` [Compound 29], under “read-out: mGluR1 IC50 rating”, the IC50 lay in the range of 100 to 1000 nM.

For `COc1ccc(-n2cnc3c(sc4ncc5c(c43)NCCO5)c2=O)cc1` [Compound 38i], the half-maximal inhibitory concentration (IC50) is, setting by setting: (read-out: mGluR1 IC50) 2.5 nM; (read-out: mGluR1 IC50 rating) below 20 nM.

Regarding `O=c1c2sc3ncc4nn[nH]c4c3c2ncn1C1CCCCC1` [Compound 13], the 50% inhibitory concentration (IC50) (read-out: mGluR1 IC50 rating) fell in the range of 100 to 1000 nM. Same read-out and setting: the same measure for `Cn1ccc2cnc3sc4c(=O)n(C5CCCCC5)cnc4c3c21` [Compound 6]: 20 to 100 nM. On to `O=c1c2sc3ncc4nc[nH]c4c3c2ncn1C1CCCCC1` [Compound 12], for which the IC50 by setting is: (read-out: mGluR1 IC50) 23 nM; (read-out: mGluR1 IC50 rating) 20 to 100 nM. The like results for `O=c1c2sc3ncc4cn[nH]c4c3c2ncn1-c1ccc(Cl)cc1` [Compound 20a] were, in that order, 38 nM and 20 to 100 nM.

For `O=c1c2sc3ncc4nc[nH]c4c3c2ncn1-c1ccc(Cl)cc1` [Compound 35], the IC50 is 6 nM (read-out: mGluR1 IC50) and below 20 nM (read-out: mGluR1 IC50 rating). For `Cc1ccc(-n2cnc3c(sc4ncc5c(c43)NCCO5)c2=O)cc1` [Compound 38h], the IC50 runs as follows: (read-out: mGluR1 IC50) 2.2 nM; (read-out: mGluR1 IC50 rating) below 20 nM. Consider `Cc1ccc(-n2cnc3c(sc4ncc5c(c43)OCC5)c2=O)cc1` [Compound 24], for which the IC50 (read-out: mGluR1 IC50 rating) fell in the range of 100 to 1000 nM.

Turning to `C[C@@H]1COc2cnc3sc4c(=O)n(-c5ccc(Cl)cc5)cnc4c3c2N1` [Compound 38d], where the note is “read-out: mGluR1 IC50 rating”, the 50% inhibitory concentration (IC50) fell in the range of 20 to 100 nM. Turning to `C[C@@H]1CNc2c(cnc3sc4c(=O)n(-c5ccc(Cl)cc5)cnc4c23)O1` [Compound 38b], the IC50 was 1.4 nM (read-out: mGluR1 IC50) and below 20 nM (read-out: mGluR1 IC50 rating). As for `Cn1ncc2cnc3sc4c(=O)n(C5CCCCC5)cnc4c3c21` [Compound 4], for the setting “read-out: mGluR1 IC50 rating”, the half-maximal inhibitory concentration (IC50) is 100 to 1000 nM. Turning to `C[C@H]1CNc2c(cnc3sc4c(=O)n(-c5ccc(Cl)cc5)cnc4c23)O1` [Compound 38c], the 50% inhibitory concentration (IC50) (read-out: mGluR1 IC50) was found to be 2.2 nM and the half-maximal inhibitory concentration (IC50) (read-out: mGluR1 IC50 rating) was below 20 nM.

Consider `COc1ccc(-n2cnc3c(sc4ncc5cc[nH]c5c43)c2=O)cc1` [Compound 27b], for which the IC50 is 4.9 nM (read-out: mGluR1 IC50) and below 20 nM (read-out: mGluR1 IC50 rating). For `Cc1ccc(-n2cnc3c(sc4ncc5cn[nH]c5c43)c2=O)cc1` [Compound 20b], the 50% inhibitory concentration (IC50) was 17 nM (read-out: mGluR1 IC50) and below 20 nM (read-out: mGluR1 IC50 rating).

In the case of `C[C@H](O)CNc1c(Br)cnc2sc3c(=O)n(-c4ccc(Cl)cc4)cnc3c12` [Compound 37c], the IC50 (read-out: mGluR1 IC50 rating) is above 1000 nM.

As for `Cc1ccc(-n2cnc3c(sc4ncc5cc[nH]c5c43)c2=O)cc1` [Compound 27a], the concentration for half-maximal inhibition (IC50) is 0.7 nM (read-out: mGluR1 IC50) and below 20 nM (read-out: mGluR1 IC50 rating).

Take `Cc1ccc(-n2cnc3c(sc4ncc5sc(=S)[nH]c5c43)c2=O)cc1` [Compound 28]: under “read-out: mGluR1 IC50 rating”, the concentration for half-maximal inhibition (IC50) lay within 100 to 1000 nM. As for `Cc1ccc(-n2cnc3c(sc4ncc5sc(=O)[nH]c5c43)c2=O)cc1` [Compound 30], where the note is “read-out: mGluR1 IC50 rating”, the IC50 lay within 100 to 1000 nM. Consider `O=c1c2sc3ncc(Br)c(NCCO)c3c2ncn1-c1ccc(Cl)cc1` [Compound 37a], for which the IC50 is 14.2 nM (read-out: mGluR1 IC50) and below 20 nM (read-out: mGluR1 IC50 rating). Take `C[C@H](CO)Nc1c(Br)cnc2sc3c(=O)n(-c4ccc(Cl)cc4)cnc3c12` [Compound 37d]: the IC50 (read-out: mGluR1 IC50 rating) was above 1000 nM. Same read-out and setting: next, `Cc1ccc(-n2cnc3c(sc4ncc5ccn(C)c5c43)c2=O)cc1` [Compound 31]: 20 to 100 nM. For `Cn1cnc2cnc3sc4c(=O)n(-c5ccc(Cl)cc5)cnc4c3c21` [Compound 36], the concentration for half-maximal inhibition (IC50) by setting is: (read-out: mGluR1 IC50) 9.8 nM; (read-out: mGluR1 IC50 rating) below 20 nM. For `O=c1c2sc3ncc4cc[nH]c4c3c2ncn1-c1ccc(Cl)cc1` [Compound 34] the same measures were 0.4 nM and below 20 nM. Consider `C[C@@H](CO)Nc1c(Br)cnc2sc3c(=O)n(-c4ccc(Cl)cc4)cnc3c12` [Compound 37e], for which the concentration for half-maximal inhibition (IC50) (read-out: mGluR1 IC50 rating) was above 1000 nM. On the same count and under the same terms, next, `Cn1cnc2cnc3sc4c(=O)n(C5CCCCC5)cnc4c3c21` [Compound 9]: 20 to 100 nM; `C[C@@H](O)CNc1c(Br)cnc2sc3c(=O)n(-c4ccc(Cl)cc4)cnc3c12` [Compound 37b]: above 1000 nM.
